This note sets out measurements from US5472979A, “1,2,3,4-tetrahydronaphthalene compounds” (Adir et Compagnie, priority 1993, dated 1995).

Structures can show the parent of a compound that is named as a salt.

What is called IC50 is the point on the concentration scale where inhibition reaches its midpoint. A word on the Ki: it is the dissociation constant of the complex between target and ligand, obtained from inhibition or displacement.

Test [1] deals with platelet aggregation induced by the TXA2 agonist, U46619. Nature of the test: Platelet aggregation in rabbits (PRP, U46619-induced). Format: cell-based. The following applies: Oryctolagus cuniculus, rabbit PRP, 37° C., antagonist 3 min before U46619, read-out: IC50 Rabbit (inhibition of U46619-induced platelet aggregation). The protocol: Rabbits (2-3 kg) are anesthetized with pentobarbital sodium (30 mg/kg i.v.). After cannulation of the left carotid artery, blood is withdrawn onto sodium citrate (0.109M) (1 vol. of citrate per 9 vol. of blood).
Platelet-rich plasma (PRP) is obtained by centrifugation (20° C.) at 250 g for 20 minutes, and platelet-poor plasma (PPP) by centrifugation at 1000 g (10 min). The number of platelets (PL) in the PRP is adjusted to between 300-350,000 PL/mm^3 by dilution with autologous PPP. The PRP is stored at the temperature of the room until the time of the test, and is used within 4 hours following withdrawal.
Platelet aggregation is carried out at 37° C. in siliconed glass tubes using an aggregometer. The PRP and PLs are stirred at 1000 rpm (revolutions per minute). In order to study the activity of thromboxane antagonists, the PRP is incubated for 1 min at 37° C., and the antagonist is then added for a period of 3 min before addition of the agonist U46619 […]. The final volume in the cell is then […]. The intensity of platelet aggregation is established by taking the maximum amplitude of the aggregation plots and is expressed as a percentage light transmission (% T).

For test [2] the test system is unchanged. Nature of the test: Platelet aggregation in dogs (PRP, adrenalin + U46619-induced). Format: cell-based. The following applies: Canis lupus familiaris, 0.05 h, dog PRP, 37° C., 3 min, adrenalin (10 μM) then U46619, read-out: IC50 Dog (inhibition of aggregation to U46619 + adrenalin). As to the method: After anesthetizing the animal with pentobarbital sodium (30 mg/kg i.v.), arterial blood is withdrawn onto sodium citrate (0.109M) (1 vol. of citrate per 9 vol. of blood). The platelet-rich plasma (PRP) is obtained after centrifugation (20° C.) at 200 g for 10 minutes. The number of platelets in the PRP is, on average, 300,000 PL/mm^3 The PRP is stored at the temperature of the room until the time of the test, and is used within 4 hours following withdrawal.
The PRP is incubated at 37° C. in the presence of the antagonist to be tested for 3 minutes. Aggregation is subsequently obtained by the addition of adrenalin (10μM) followed by that of U46619 […] 30 seconds later.

For test [3] the test system is unchanged. As to the kind of experiment: Platelet aggregation in man (PRP, U46619-induced). Format: cell-based. The settings on record: human PRP, procedure of Example 19, U46619 0.3 mM, read-out: IC50 (inhibition of U46619-induced platelet aggregation). The protocol: Dog platelets respond weakly to U46619 alone. […] The PRP is incubated at 37° C. in the presence of the antagonist to be tested for 3 minutes. Aggregation is subsequently obtained by the addition of adrenalin (10μM) followed by that of U46619 […] 30 seconds later.
Venous blood is obtained from human volunteers who have taken no aspirin for at least 14 days preceding the experiment. Blood is withdrawn onto sodium citrate (0.109M) (1 vol. of citrate per 9 vol. of blood). Platelet-rich plasma (PRP) is obtained after centrifugation (20° C.) at 200 g for 10 minutes. The number of platelets is, on average, 250,000 PL/mm^3. The PRP is stored at the temperature of the room until the time of the test, and is used within 2 hours following withdrawal. The antagonists are tested according to the procedure described in Example 19, using U46619 at the concentration of […].

The next test concerns the target T1, platelet TXA2 receptors (Homo sapiens, UniProt P21731).
T1 construct: platelet membranes, prepared from washed, ground and centrifuged human platelets; from tissue; host or cells: human platelets (membranes)
T1 sequence (P21731 1-343): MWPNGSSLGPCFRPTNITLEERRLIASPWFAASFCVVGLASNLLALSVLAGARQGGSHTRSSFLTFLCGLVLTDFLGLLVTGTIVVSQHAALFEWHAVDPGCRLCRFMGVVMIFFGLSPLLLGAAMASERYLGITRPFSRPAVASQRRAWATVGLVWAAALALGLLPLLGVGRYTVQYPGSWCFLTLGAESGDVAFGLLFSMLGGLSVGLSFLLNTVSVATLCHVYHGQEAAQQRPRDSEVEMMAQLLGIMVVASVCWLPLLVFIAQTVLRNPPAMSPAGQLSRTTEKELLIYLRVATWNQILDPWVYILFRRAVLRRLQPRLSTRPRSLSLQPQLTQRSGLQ
Nature of the test: Specific binding to human platelet membranes (3H-SQ29548 competition). The following applies: 25° C., Cheng and Prusoff. The protocol: The experiments take place at a temperature of 25° C. in a final reaction volume of 0.2 ml in the presence of 0.1 mg of platelet membranes, prepared from washed, ground and centrifuged human platelets. Determination of the activity of the products of the invention is made by competition experiments, in which increasing concentrations of product are placed in the presence of a fixed concentration of ^3 H-SQ29548. This protocol makes it possible to produce inhibition curves for each antagonist studied. The 50% inhibitory concentration is determined by non-linear regression by the "Simplex" method described by M. S. Caceci et al., (Byte, 340-362, May 1984) calculated according to the mass action law model of C. Michaelis et al. (Biochem. Zeitschrift, 49, 333-369, 1913). The inhibition constant is then determined using the formula of Cheng and Prusoff (Biochem. Pharmacol., 22, 3099-3108, 1973).

For test [4], the system named is platelet aggregation of U46619. As to the kind of experiment: ex vivo platelet aggregation in dogs after oral administration. Also on record: species or system dog. The protocol:
The experiments are carried out on non-anesthetized dogs. After applying a tourniquet and introduction of a needle into the cephalic vein, blood is withdrawn onto sodium citrate (0.109M). The blood is stored at the temperature of the room. Platelet aggregation is measured in the total blood using an impedance probe in an aggregometer. The pro-aggregating activity of the thromboxane receptor agonist, U46619, is tested in the presence of adrenalin (10 μM). The products of the invention and the reference substances are administered to dogs orally after performing the control test. Blood samples are subsequently withdrawn at determined times: t=30 min, 1 h, 2 h, 4 h, 6 h, 24 h, 48 h, etc. until the aggregation activity of U46619 has fully returned.

Test [5] has as its system guinea pig carotid artery. Nature of the test: Experimental thrombosis in guinea pig carotid artery. Format: in vivo. The following applies: i.v. injection of 100 μg/kg, n=3; 10±2 CFV/20 min before the treatment; control 9±1 then 8±1. As to the method:
The technique recently described by Roux et al., Thrombosis and Haemostasis, 71, 252-256 (1994), was used in order to measure the anti-thrombotic effect of our products. Male guinea pigs (390 to 420 g) were anesthetized with ketamine hydrochloride (90 mg/kg i.m.) and xylazine (12 mg/kg i.m.). A catheter is introduced into the left jugular vein in order to allow the i.v. injection of the substances. The right carotid artery is prepared and a Doppler probe (20 MHz) is installed, which allows the blood flow to be measured. At a distance of two mm from the Doppler probe a subendothelial lesion is produced using a clamp ("pinching"). After introduction of this lesion, the blood flow decreases and stops altogether (between 1 and 2 min). When the flow is at zero, the artery is touched, which removes the occlusive thrombus and restores the flow (see Roux et al., 1994). This thrombotic process is repeated and the cyclic decreases in the flow (CFV=cyclic flow variations) are expressed as a number per 20 min. In control carotid arteries (n=4), the CFVs are counted over 2 periods of 20 min: during the first period, 9±1 CFV/20 min are counted; during the second period, 8±1 CFV/20 min are counted. In a group of animals (n=3) treated with the compound of Example 1, 10±2 CFV/20 min are counted before the treatment and 0.3±0.3 CFV/20 min are counted alter an i.v. injection of 100 μg/kg.

For `O=C(O)CCn1c2c(c3ccccc31)C[C@H](NS(=O)(=O)c1ccc(F)cc1)CC2` [BAY U3405, reference compound], the 50% inhibitory concentration (IC50) came to 1100 nM in test [1], 110 nM in test [2] and 180 nM in test [3]. Moreover, the Ki at platelet TXA2 receptors stood at 3.61 nM. Further, in test [4] (100 μg/kg per os), the “duration of total inhibition of aggregation ex vivo” value amounted to 6 h.
Turning to `Cc1ccc2c(c1CCC(=O)O)CCC(NS(=O)(=O)c1ccc(Cl)cc1)C2` (stereo not shown) [Example 1, 3-{6-[(4-Chlorophenylsulfonyl)amino]-2-methyl-5,6,7,8-tetrahydronaphth-1-yl}propionic acid, sodium salt], the IC50 in test [1] is 240 nM; in test [2] it was 28 nM; in test [3] it was 84 nM. Also, on platelet TXA2 receptors, the Ki was 0.96 nM. Further, the “duration of complete inhibition of U46619 platelet aggregation ex vivo” value in test [4] (10 μg/kg per os) is reported as “at least 3 days”; in test [4] (10 to 3000 μg/kg, orally), “at least 3 days”. Also, the “duration of inhibition of U46619 platelet aggregation ex vivo” value in test [4] (100 μg/kg per os) is reported as “at least 8 days”. Further, the “inhibition of U46619 platelet aggregation ex vivo (words, compared with 100 μg/kg per os, at least 8 days)” value in test [4] (3 mg/kg per os) is listed as “same result”. Further, in test [4] (highest dose of 10 to 3000 μg/kg, orally), the “duration of complete inhibition of U46619 platelet aggregation ex vivo, highest dose” value is “up to 11 days”. For the same compound, in test [5], the “cyclic flow variations (CFV) after treatment” value is recorded as 0.3±0.3 CFV/20 min.
As for `Cc1ccc2c(c1CCC(=O)O)CCC(NS(=O)(=O)c1ccc(F)cc1)C2` (stereo not shown) [Example 3, 3-{6-[(4-Fluorophenylsulfonyl)amino]-2-methyl-5,6,7,8-tetrahydronaphth-1-yl}propionic acid, sodium salt], the half-maximal inhibitory concentration (IC50) was determined as 270 nM in test [1] and 10 nM in test [2].
On to `Cc1ccc2c(c1CCC(=O)O)CCC(NS(=O)(=O)c1cccc3ccccc13)C2` (stereo not shown) [Example 8, 3-[6-(1 -Naphthylsulfonylamino)-2-methyl-5,6,7,8-tetrahydronaphth-1-yl]propionic acid], for which, in test [2], the IC50 was 150 nM.
As for `Cc1ccc(S(=O)(=O)NC2CCc3c(CCC(=O)O)cccc3C2)cc1` (stereo not shown) [Example 9, 3-[6-(4-Tolylsulfonylamino)-5,6,7,8-tetrahydronaphth-1-yl]propionic acid], the IC50 in test [1] was 320 nM; in test [2], 15 nM.
In the same order, the values of `Cc1cc(CCC(=O)O)c2c(c1)CC(NS(=O)(=O)c1ccc(F)cc1)CC2` (stereo not shown) [Example 11, 3-{6-[(4-Fluorophenylsulfonyl)amino]-3-methyl-5,6,7,8-tetrahydronaphth-1-yl}propionic acid] are 670 nM and 56 nM.
In the same order, the values of `O=C(O)CCc1cccc2c1OCC(NS(=O)(=O)c1ccc(Cl)cc1)C2` (stereo not shown) [Example 16, 3-[3-(4-Chlorophenylsulfonyl)amino-8-chromanyl]propionic acid] are 250 nM and 20 nM.
As for `O=C(O)CCc1cccc2c1OCC(NS(=O)(=O)c1ccc(F)cc1)C2` (stereo not shown) [Example 17, 3-[3-(4-Fluorophenylsulfonyl)aminochroman-8-yl]propionic acid], the IC50 in test [1] was 1100 nM.
